Test results published in the NIST ThermoML archive (doi:10.1016/j.fluid.2019.05.003).

Experiment: xn = mol fraction of the nth substance listed
Conditions: 101 kPa, Liquid; for viscosity: Falling or rolling sphere viscometry; for mass density: Vibrating tube method

C[N+]1(CCO)CCOCC1.[Br-] [N-methyl-N-(2-hydroxyethyl)morpholinium bromide] + O
Conditions	mass density [kg/m3]	viscosity [mPa·s]
298.15 K, x1 = 0.023	1078.7	1.173
298.15 K, x1 = 0.038	1121	1.482
298.15 K, x1 = 0.051	1150.9	1.716
298.15 K, x1 = 0.075	1197.8	2.345
298.15 K, x1 = 0.097	1232	3.195
298.15 K, x1 = 0.124	1264.8	4.717
298.15 K, x1 = 0.157	1297.5	7.331
298.15 K, x1 = 0.197	1328.8	14.15
298.15 K, x1 = 0.227	1345.7	20.61
303.15 K, x1 = 0.023	1076.7	1.058
303.15 K, x1 = 0.038	1118.8	1.33
303.15 K, x1 = 0.051	1148.6	1.536
303.15 K, x1 = 0.075	1195.3	2.087
303.15 K, x1 = 0.097	1229.3	2.831
303.15 K, x1 = 0.124	1262	4.126
303.15 K, x1 = 0.157	1294.6	6.314
303.15 K, x1 = 0.197	1325.9	12.14
303.15 K, x1 = 0.227	1342.8	17.39
308.15 K, x1 = 0.023	1074.6	0.962
308.15 K, x1 = 0.038	1116.5	1.206
308.15 K, x1 = 0.051	1146.2	1.385
308.15 K, x1 = 0.075	1192.7	1.878
308.15 K, x1 = 0.097	1226.6	2.526
308.15 K, x1 = 0.124	1259.2	3.653
308.15 K, x1 = 0.157	1291.7	5.635
308.15 K, x1 = 0.197	1322.9	10.46
308.15 K, x1 = 0.227	1339.7	14.76
313.15 K, x1 = 0.023	1072.3	0.88
313.15 K, x1 = 0.038	1114.1	1.101
313.15 K, x1 = 0.051	1143.6	1.26
313.15 K, x1 = 0.075	1190	1.7
313.15 K, x1 = 0.097	1223.8	2.278
313.15 K, x1 = 0.124	1256.4	3.255
313.15 K, x1 = 0.157	1288.8	4.938
313.15 K, x1 = 0.197	1319.9	9.042
313.15 K, x1 = 0.227	1336.7	12.6
318.15 K, x1 = 0.023	1069.8	0.81
318.15 K, x1 = 0.038	1111.6	1.011
318.15 K, x1 = 0.051	1141	1.154
318.15 K, x1 = 0.075	1187.3	1.547
318.15 K, x1 = 0.097	1221	2.062
318.15 K, x1 = 0.124	1253.5	2.921
318.15 K, x1 = 0.157	1285.8	4.371
318.15 K, x1 = 0.197	1316.9	7.869
318.15 K, x1 = 0.227	1333.7	10.85
323.15 K, x1 = 0.023	–	0.754
323.15 K, x1 = 0.038	–	0.933
323.15 K, x1 = 0.051	–	1.061
323.15 K, x1 = 0.075	–	1.416
323.15 K, x1 = 0.097	–	1.88
323.15 K, x1 = 0.124	–	2.641
323.15 K, x1 = 0.157	–	3.899
323.15 K, x1 = 0.197	–	6.877
323.15 K, x1 = 0.227	–	9.429
